# Measured values reported in ChEMBL document CHEMBL1144495, “Tri-, tetra- and heptacyclic perylene analogues as new potential antineoplastic agents based on DNA telomerase inhibition” (Bioorg Med Chem, 2007).
# The source made the active and inactive calls. The rule behind the calls is not given here.
# What was measured:
# NCI-H460 = assay: Cytotoxicity against human H460 cells by MTT assay; assay type: cell-based
# HT-29 = assay: Cytotoxicity against human HT29 cells by MTT assay; assay type: cell-based
# [1] = biological target: DNA polymerase I, thermostable (Thermus aquaticus, UniProt P19821); assay: Inhibition of Taq polymerase
# DNA polymerase I, thermostable, sequence (P19821 whole entry): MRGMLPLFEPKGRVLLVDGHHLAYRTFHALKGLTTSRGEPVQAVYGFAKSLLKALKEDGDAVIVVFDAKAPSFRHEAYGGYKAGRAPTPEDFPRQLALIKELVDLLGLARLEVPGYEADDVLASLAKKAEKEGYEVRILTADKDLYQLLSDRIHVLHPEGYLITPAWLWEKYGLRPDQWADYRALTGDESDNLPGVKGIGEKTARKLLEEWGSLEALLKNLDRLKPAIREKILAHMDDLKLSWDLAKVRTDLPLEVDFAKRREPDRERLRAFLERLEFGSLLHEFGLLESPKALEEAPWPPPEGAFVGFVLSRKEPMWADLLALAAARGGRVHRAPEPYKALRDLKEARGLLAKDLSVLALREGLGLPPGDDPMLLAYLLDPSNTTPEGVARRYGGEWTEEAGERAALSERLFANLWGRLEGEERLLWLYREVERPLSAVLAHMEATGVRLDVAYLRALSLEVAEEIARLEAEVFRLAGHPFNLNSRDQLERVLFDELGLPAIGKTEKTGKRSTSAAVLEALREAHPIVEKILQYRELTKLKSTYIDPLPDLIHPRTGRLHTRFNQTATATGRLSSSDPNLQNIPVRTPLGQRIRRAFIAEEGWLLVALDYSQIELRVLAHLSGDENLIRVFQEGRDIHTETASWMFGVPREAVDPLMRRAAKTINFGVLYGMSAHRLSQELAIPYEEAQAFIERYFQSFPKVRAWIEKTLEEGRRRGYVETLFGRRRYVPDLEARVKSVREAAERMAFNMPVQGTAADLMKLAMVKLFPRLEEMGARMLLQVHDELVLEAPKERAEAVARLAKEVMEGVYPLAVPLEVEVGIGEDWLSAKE
# [2] = biological target: T1, Telomerase reverse transcriptase (Homo sapiens, UniProt O14746); assay: Inhibition of telomerase in JR8 cell extract by TRAP assay; assay type: cell-free
# T1 sequence (O14746 whole entry): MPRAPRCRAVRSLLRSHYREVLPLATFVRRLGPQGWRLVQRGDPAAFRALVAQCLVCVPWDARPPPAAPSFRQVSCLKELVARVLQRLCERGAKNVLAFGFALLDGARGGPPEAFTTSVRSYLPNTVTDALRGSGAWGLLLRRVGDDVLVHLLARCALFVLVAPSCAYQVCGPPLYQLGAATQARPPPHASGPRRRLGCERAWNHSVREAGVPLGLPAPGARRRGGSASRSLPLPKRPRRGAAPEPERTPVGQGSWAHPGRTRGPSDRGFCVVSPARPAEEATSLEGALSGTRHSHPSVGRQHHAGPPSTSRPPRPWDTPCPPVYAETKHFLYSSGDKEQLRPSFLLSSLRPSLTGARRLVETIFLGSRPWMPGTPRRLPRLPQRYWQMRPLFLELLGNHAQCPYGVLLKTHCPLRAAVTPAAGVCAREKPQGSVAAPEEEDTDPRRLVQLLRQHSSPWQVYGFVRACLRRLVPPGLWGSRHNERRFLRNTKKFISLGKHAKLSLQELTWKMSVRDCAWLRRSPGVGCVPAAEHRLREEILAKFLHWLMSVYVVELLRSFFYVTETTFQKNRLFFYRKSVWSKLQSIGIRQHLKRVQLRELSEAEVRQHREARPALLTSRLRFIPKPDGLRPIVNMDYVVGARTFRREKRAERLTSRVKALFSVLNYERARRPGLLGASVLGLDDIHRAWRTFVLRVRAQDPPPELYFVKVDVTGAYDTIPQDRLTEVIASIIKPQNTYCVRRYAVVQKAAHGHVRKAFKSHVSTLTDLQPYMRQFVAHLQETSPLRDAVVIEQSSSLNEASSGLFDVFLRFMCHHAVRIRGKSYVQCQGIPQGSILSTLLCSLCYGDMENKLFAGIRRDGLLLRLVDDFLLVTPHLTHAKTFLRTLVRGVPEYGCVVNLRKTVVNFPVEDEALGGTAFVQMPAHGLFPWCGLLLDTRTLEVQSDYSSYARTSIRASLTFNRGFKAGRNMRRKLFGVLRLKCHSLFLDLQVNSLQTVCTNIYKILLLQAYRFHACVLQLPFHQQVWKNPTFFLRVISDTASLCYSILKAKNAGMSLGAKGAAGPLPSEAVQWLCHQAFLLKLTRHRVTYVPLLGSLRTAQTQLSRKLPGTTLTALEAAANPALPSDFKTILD
# [3] = Selectivity index, ratio of IC50 for Taq polymerase to IC50 for telomerase
# [4] = biological target: T1, Telomerase reverse transcriptase; assay: Inhibition of telomerase in JR8 cell extract at 0 to 40 uM by TRAP assay; assay type: cell-free
SMILES,IC50 (NCI-H460),IC50 (HT-29),IC50 [1],IC50 [2],Selectivity index [3],Activity [4]
CN(C)CCN1C(=O)c2ccc3c4ccc5c6c(ccc(c7ccc(c2c37)C1=O)c64)C(=O)N(CCN(C)C)C5=O,2.3 µM,0.23 µM,0.9 µM,160 nM,5.6,–
CN(C)CCN1Cc2ccc3c4c(ccc(c24)C1)CN(CCN(C)C)C3,≥ 100 µM,15.2 µM,25 µM,–,–,inactive
CN1Cc2ccc3c4c(ccc(c24)C1)CN(C)C3,≥ 100 µM,≥ 100 µM,> 40 µM,–,–,inactive
O=C1c2ccc3c4c(ccc(c24)C(=O)N1CCNCCO)C(=O)N(CCNCCO)C3=O,9.3 µM,11.7 µM,5.8 µM,–,–,inactive
c1cc2c3ccc4c5c(ccc(c6ccc7c(c1CN(CCN1CCCCC1)C7)c26)c53)CN(CCN1CCCCC1)C4,28.1 µM,5.4 µM,10 µM,400 nM,25,–
CN(C)CCN1C(=O)c2ccc3c4c(ccc(c24)C1=O)C(=O)N(CCN(C)C)C3=O,0.16 µM,–,1.5 µM,–,–,inactive
O=C1c2ccc3c4ccc5c6c(ccc(c7ccc(c2c37)C(=O)N1CCN1CCCCC1)c64)C(=O)N(CCN1CCCCC1)C5=O,≥ 100 µM,9.02 µM,5 µM,200 nM,25,–
C[N+](C)(C)CCCN1C(=O)c2ccc3c4c(ccc(c24)C1=O)C(=O)N(CCC[N+](C)(C)C)C3=O,1.14 µM,8.89 µM,5 µM,2500 nM,2,–
C[N+](C)(C)CCN1C(=O)c2cccc3cccc(c23)C1=O,≥ 100 µM,–,22 µM,–,–,inactive
O=C1c2ccc3c4ccc5c6c(ccc(c7ccc(c2c37)C(=O)N1CCNCCO)c64)C(=O)N(CCNCCO)C5=O,2.62 µM,1.17 µM,0.2 µM,60 nM,2,–
C[N+](C)(C)CCN1C(=O)c2ccc3c4c(ccc(c24)C1=O)C(=O)N(CC[N+](C)(C)C)C3=O,2.21 µM,3.24 µM,5 µM,2500 nM,2,–
CN(C)CCCN1C(=O)c2ccc3c4c(ccc(c24)C1=O)C(=O)N(CCCN(C)C)C3=O,0.42 µM,0.13 µM,6.4 µM,3500 nM,1.8,–
CN(C)CCN1C(=O)c2cccc3cccc(c23)C1=O,3.42 µM,5.05 µM,> 40 µM,–,–,inactive
C[N+](C)(C)CCN1C(=O)c2ccc3c4ccc5c6c(ccc(c7ccc(c2c37)C1=O)c64)C(=O)N(CC[N+](C)(C)C)C5=O,≥ 100 µM,≥ 100 µM,0.15 µM,30 nM,4.2,–
CN(C)CCN1Cc2cccc3cccc(c23)C1,≥ 100 µM,≥ 100 µM,> 40 µM,–,–,inactive
